1 compound from patent US20240147991A1, “Diphenyl Tablets and Methods of Preparing the Same” (Ideaz, LLC, priority 2018, published 2024) can be followed below.

This data set in a line: Evaluation of sublimation of diphenyl tablets versus granules exposed to air. In kind it is physicochemical. To be noted: 22 days; 1.06 grams substance at start; empty tray 1 3.715 grams (tablets), empty tray 2 3.650 grams (granules). The source says: Two trays were fashioned from equal sized sheets of aluminum foil and tape. The trays were each weighed after fashioning, with tray 1 weighing 3.715 grams and tray 2 weighing 3.650 grams (a weight difference between trays of 0.065 grams). Two compressed diphenyl tablets handled with tweezers were first weighed at a total weight of 1.06 grams and then placed into tray 1. An equal amount of diphenyl granules (i.e., having a total weight of 1.06 grams) was spooned into tray 2.
Both trays were exposed to air over 22 days and re-weighed. Tray 1 weighed 4.45 grams and tray 2 weighed 3.99 grams. After adjusting the weight difference of the trays by subtracting 0.065 grams from tray 1, it can be seen that the diphenyl tablets sublimed at a slower rate than the diphenyl granules by retaining 8.88 weight % more than the granules after being exposed to air for 22 days.

Take `c1ccc(-c2ccccc2)cc1` [diphenyl granules, diphenyl]: the “Weight of tray with substance after exposure to air” value was 3.99 grams.
